Source: US20220204510A1, “2,3-DIHYDRO-1H-PYRROLIZINE-7-FORMAMIDE DERIVATIVE AND APPLICATION THEREOF” (CHIA TAI TIANQING PHARMACEUTICAL GROUP CO., LTD., priority 2018, published 2022)

Assays:
[1] = Experiment on the liver-to-blood ratio in Balb/c mice, oral administration; format: in vivo; settings: oral 3 mg/kg, Balb/c female mice; for AUC0-last: Liver; for Kp / AUC(0-t): mouse; for Kp: liver (tissue homogenate) / plasma, read-out: AUC Ratio (L/P) Liver/plasma exposure ratio; for AUC(0-t): Plasma
Description: Experiment on the liver-to-blood ratio in Balb/c mice orally administered with the test compound Compound 18 was mixed with an aqueous solution containing 10% polyethylene glycol-15 hydroxystearate, and the mixture was vortexed and sonicated to prepare a 0.3 mg/mL uniform suspension for later use. Balb/c female mice aged 7 to 10 weeks were orally administered with the candidate compound solution at a dose of 3 mg/kg. Whole blood at a certain time point was collected and plasma was prepared. Liver tissues at the corresponding time point were collected to prepare a tissue homogenate. Drug concentration was analyzed by LC-MS/MS and pharmacokinetic parameters were calculated with Phoenix WinNonlin software. Compound 25 was mixed with an aqueous solution containing 10% polyethylene glycol-15 hydroxystearate, and the mixture was vortexed and sonicated to prepare a 0.3 mg/mL clear solution for later use. Balb/c female mice aged 7 to 10 weeks were orally administered with the candidate compound solution at a dose of 3 mg/kg. Whole blood at a certain time point was collected and plasma was prepared. Liver tissues at the corresponding time point were collected to prepare a tissue homogenate. Drug concentration was analyzed by LC-MS/MS and pharmacokinetic parameters were calculated with Phoenix WinNonlin software.

[2] = Pharmacokinetic study in Balb/c mice by oral administration and intravenous injection; format: in vivo; settings: mouse, plasma, Balb/c female mice; for bioavailability / AUC / Cmax / Tmax: 3 mg/kg; for bioavailability: PO (3 mpk) vs IV (1 mg/kg), read-out: Bioavailability F; for AUC / Cmax / Tmax: PO (3 mpk); for AUC: read-out: Area under the plasma concentration-time curve AUC; for Cmax: read-out: Peak concentration Cmax; for Tmax: read-out: Peak time Tmax; for Vd / AUC(0-t) / clearance / half-life: IV (1 mg/kg); for Vd: read-out: Apparent volume of distribution Vdss; for AUC(0-t): read-out: Area under the plasma concentration-time curve AUC0-24 h; for clearance: read-out: Clearance CL; for half-life: read-out: Half-life T1/2 (converted)
Description: Pharmacokinetic study of the test compound in Balb/c mice by oral administration and intravenous injection: The test compound was mixed with a solution containing dimethyl sulfoxide (10%), polyethylene glycol 400 (60%) and water (30%), and the mixture was vortexed and sonicated to prepare a 0.2 mg/mL clear solution, which was filtered through a millipore filter for later use. Balb/c female mice aged 7 to 10 weeks were intravenously injected with the candidate compound solution at a dose of 1 mg/kg. The test compound was mixed with an aqueous solution containing 10% polyoxyethylene stearate, and the mixture was vortexed and sonicated to prepare a 0.3 mg/mL clear solution for later use. Balb/c female mice aged 7 to 10 weeks were orally administered with the candidate compound solution at a dose of 3 mg/kg. Whole-blood was collected and plasma was prepared. Drug concentration was analyzed by LC-MS/MS and pharmacokinetic parameters were calculated with Phoenix WinNonlin software.

[3] = Experiment on cytotoxicity (CellTiter-Glo, 3 days); format: cell-based; settings: 3 days incubation, read-out: 50% cytotoxic concentration (CC50)
Description: • 1. The compound was diluted with DMSO (dimethyl sulfoxide) in a 3-fold gradient for 9 concentrations, and added into a 96-well plate in duplicate. The compound concentration was 200-fold of the final test concentration. • 2. The cells were rinsed with PBS (phosphate buffered saline) once, added with 0.25% trypsin and digested for about 2-5 min in a 37° C., 5% CO2 incubator. Then the digestion was terminated with a cell culture medium and the cells were dispersed into single cells by pipetting with a pipettor. • 3. The cell density was counted with a cell counter, and adjusted to the required density with the medium. • 4. The cells were added into a 96-well plate that had been added with the compound. The final concentration of DMSO in each well was 0.5%. Wells containing 0.5% DMSO were used as non-toxic negative controls, and wells containing the cell culture medium were used as 100% cytotoxicity controls. Then the cell plate was incubated in a 37° C., 5% CO2 cell incubator for 3 days. • 5. The chemiluminescence signal (RLU, relative chemiluminescence unit) of each well in the cell plate was detected with the cell viability detection kit CellTiter-Glo using the multi-functional microplate reader Envision, with instructions on the kit followed. • 6. The raw data (RLU) were substituted into the following formula to calculate the cell viability of each well (cell viability %): […]

[4] = Metabolic stability in liver microsomes; format: in vitro ADME; settings: mouse, CD-1 mice liver microsomes; for half-life at 1 μM: 1 μM compound, 0.5 mg/mL; for microsomal CLint at 1 μM: read-out: CLint(mic)
Description: Experimental objective: to evaluate the metabolic stability of the test compound in CD-1 mice and human liver microsomes
Experimental procedures: first, the test compound (10 mM) was subjected to a two-step dilution, where the compound was diluted to an intermediate concentration of 100 μM with 100% methanol, and the working solution was diluted to 10 μM with a potassium phosphate buffer; eight 96-well incubation plates were prepared, and named T0, T5, T10, T20, T30, T60, Blank and NCF60, respectively; the reaction time points corresponding to the first 6 incubation plates were 0, 5, 10, 20, 30 and 60 min, respectively; for the Blank plate, neither the test compound nor a control compound was added, and for the NCF60 plate, potassium phosphate buffer was used in an incubation of 60 min in place of a NADPH regeneration system solution; 10 μL of the test compound working solution and 80 μL of the microsome working solution (liver microsome protein concentration was 0.625 mg/mL) were added to the T0, T5, T10, T20, T30, T60 and NCF60 plates, while only the microsome working solution was added to the Blank plate, and all the incubation plates were then placed in a 37° C. water bath for pre-incubation for about 10 min; after the pre-incubation, 10 μL of a NADPH regeneration system working solution was added into each sample well of all the plates except the NCF60 plate and T0 plate to start the reaction, and 10 μL of potassium phosphate buffer was added to each well of the NCF60 plate; therefore, in the test compound or control compound samples, the final reaction concentrations of the compound, testosterone, diclofenac and propafenone were 1 μM, the concentration of the liver microsomes was 0.5 mg/mL, and the final concentrations of DMSO and acetonitrile in the reaction system were 0.01% (v/v) and 0.99% (v/v), respectively; after incubation for an appropriate time (such as 5, 10, 20, 30, and 60 min), 300 μL of a stop solution (acetonitrile solution containing 100 ng/mL tolbutamide and 100 ng/mL labetalol) was added to each sample well to stop the reaction; 300 μL of the stop solution and then 10 μL of the NADPH working solution were added to the T0 plate, all the sample plates were shaken and centrifuged in a centrifuge (3220×g) for 20 min, and then 100 μL of supernatant was taken from each well and diluted with 300 μL of pure water for liquid chromatography-tandem mass spectrometry analysis.

Work on C[C@]1(NC(=O)C(=O)c2c(Cl)c(C(=O)Nc3ccc(F)c(F)c3)c3n2CCC3)CC[C@H](CC(=O)O)CC1 [Compound 18] yielded an AUC0-last [1] of 75412 nmol·h/kg, a Kp [1] of 20.4 and an AUC(0-t) [1] of 3.69 µM·h. The bioavailability [2] was 271%, the AUC [2] was 5.02 µM·h and the Cmax [2] was 1460 nM. It also gave a Tmax [2] of 0.5 h, a Vd [2] of 8.8 L/kg and an AUC(0-t) [2] of 0.617 µM·h. For the same compound, the clearance [2] was 50.1 mL/min/kg, the half-life [2] was 2.8 h and the CC50 at 3 days [3] was > 50 µM. For the same compound, the CLint scaled at 1 μM [4] was < 38 mL/min/kg, the half-life at 1 μM [4] was > 2.42 h and the microsomal CLint at 1 μM [4] was < 9.6 µL/min/mg.

C[C@]1(NC(=O)C(=O)c2c(Cl)c(C(=O)Nc3cc(F)c(F)c(F)c3)c3n2CCC3)CC[C@H](CC(=O)O)CC1 [Compound 25] gave an AUC0-last [1] of 86036 nmol·h/kg, a Kp [1] of 24.7 and an AUC(0-t) [1] of 3.48 µM·h. The bioavailability [2] was 51%, the AUC [2] was 2.27 µM·h and the Cmax [2] was 1480 nM. For the same compound, the Tmax [2] was 0.5 h, the Vd [2] was 3.1 L/kg and the AUC(0-t) [2] was 1.49 µM·h. For the same compound, the clearance [2] was 20 mL/min/kg, the half-life [2] was 1.95 h and the CC50 at 3 days [3] was > 50 µM. The CLint scaled at 1 μM [4] was < 38 mL/min/kg, the half-life at 1 μM [4] was > 2.42 h and the microsomal CLint at 1 μM [4] was < 9.6 µL/min/mg.
